Measured values published in PubChem BioAssay (NCI).
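Each compound was tested at five concentrations against cells in 96-well plates for 48 hours. TGI: concentration producing complete growth inhibition.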

Columns and labels:
Assay in all cases: inhibition of tumour cell growth, NCI panel, 48 h
COLO 205 colon = tested on: COLO 205 colon
LOX IMVI melanoma = tested on: LOX IMVI melanoma
MDA-MB-435 = tested on: MDA-MB-435
SNB-75 CNS = tested on: SNB-75 CNS
NCI/ADR-RES ovarian = tested on: NCI/ADR-RES ovarian
HCT-15 colon = tested on: HCT-15 colon
SK-MEL-2 melanoma = tested on: SK-MEL-2 melanoma
SK-MEL-5 melanoma = tested on: SK-MEL-5 melanoma
786-0 renal = tested on: 786-0 renal
EKVX NSCLC = tested on: EKVX NSCLC
HL-60(TB) leukemia = tested on: HL-60(TB) leukemia
SF-539 CNS = tested on: SF-539 CNS
OVCAR-8 ovarian = tested on: OVCAR-8 ovarian
OVCAR-5 ovarian = tested on: OVCAR-5 ovarian
SW-620 colon = tested on: SW-620 colon
NCI-H23 lung = tested on: NCI-H23 lung
RXF 393 renal = tested on: RXF 393 renal
SF-268 CNS = tested on: SF-268 CNS
HT29 colon = tested on: HT29 colon
UACC-62 melanoma = tested on: UACC-62 melanoma
SR leukemia = tested on: SR leukemia
OVCAR-4 ovarian = tested on: OVCAR-4 ovarian
SK-OV-3 ovarian = tested on: SK-OV-3 ovarian
IGROV1 ovarian = tested on: IGROV1 ovarian
T-47D breast = tested on: T-47D breast
DU-145 prostate = tested on: DU-145 prostate
HS 578T breast = tested on: HS 578T breast
UO-31 renal = tested on: UO-31 renal
KM12 colon = tested on: KM12 colon
HOP-62 NSCLC = tested on: HOP-62 NSCLC
TK-10 renal = tested on: TK-10 renal
SF-295 CNS = tested on: SF-295 CNS
M14 melanoma = tested on: M14 melanoma
HCC-2998 colon = tested on: HCC-2998 colon
OVCAR-3 ovarian = tested on: OVCAR-3 ovarian
SK-MEL-28 melanoma = tested on: SK-MEL-28 melanoma
A549 NSCLC = tested on: A549 NSCLC
SNB-19 CNS = tested on: SNB-19 CNS
CCRF-CEM leukemia = tested on: CCRF-CEM leukemia
K-562 leukemia = tested on: K-562 leukemia
MDA-N = tested on: MDA-N
PC-3 prostate = tested on: PC-3 prostate
MOLT-4 leukemia = tested on: MOLT-4 leukemia
NCI-H460 lung = tested on: NCI-H460 lung
NCI-H226 lung = tested on: NCI-H226 lung
ACHN renal = tested on: ACHN renal
HCT-116 colon = tested on: HCT-116 colon
CAKI-1 renal = tested on: CAKI-1 renal
A498 renal = tested on: A498 renal
BT-549 breast = tested on: BT-549 breast
RPMI-8226 leukemia = tested on: RPMI-8226 leukemia
MCF7 breast = tested on: MCF7 breast
MDA-MB-231 breast = tested on: MDA-MB-231 breast
U251 CNS = tested on: U251 CNS
SN12C renal = tested on: SN12C renal
UACC-257 melanoma = tested on: UACC-257 melanoma

In the case of `CC(C)(C)[Si](C)(C)OC1(CCc2ccccc2OS(=O)(=O)C(F)(F)F)CCCC=C1COCc1ccccc1` (stereo unspecified), the TGI (COLO 205 colon) is reported as over 100 µM, the TGI (LOX IMVI melanoma) is reported as over 100 µM and the TGI (MDA-MB-435) is reported as over 100 µM. For the same compound, the TGI (SNB-75 CNS) was over 100 µM, the TGI (NCI/ADR-RES ovarian) was over 100 µM and the TGI (HCT-15 colon) was over 100 µM. The TGI (SK-MEL-2 melanoma) was over 100 µM, the TGI (SK-MEL-5 melanoma) was over 100 µM and the TGI (786-0 renal) was over 100 µM. For the same compound, the TGI (EKVX NSCLC) was over 100 µM, the TGI (HL-60(TB) leukemia) was over 55.3 µM and the TGI (SF-539 CNS) was over 100 µM. For the same compound, the TGI (OVCAR-8 ovarian) was over 100 µM, the TGI (OVCAR-5 ovarian) was over 100 µM and the TGI (SW-620 colon) was over 100 µM. The TGI (NCI-H23 lung) was over 100 µM, the TGI (RXF 393 renal) was 90.8 µM and the TGI (SF-268 CNS) was over 100 µM. It also gave a TGI (HT29 colon) of over 100 µM, a TGI (UACC-62 melanoma) of over 53 µM and a TGI (SR leukemia) of over 100 µM. For the same compound, the TGI (OVCAR-4 ovarian) was over 100 µM, the TGI (SK-OV-3 ovarian) was over 100 µM and the TGI (IGROV1 ovarian) was over 100 µM. For the same compound, the TGI (T-47D breast) was over 100 µM, the TGI (DU-145 prostate) was over 100 µM and the TGI (HS 578T breast) was over 100 µM. It also gave a TGI (UO-31 renal) of over 100 µM, a TGI (KM12 colon) of over 100 µM and a TGI (HOP-62 NSCLC) of over 100 µM. It also gave a TGI (TK-10 renal) of over 100 µM, a TGI (SF-295 CNS) of over 100 µM and a TGI (M14 melanoma) of over 100 µM. It also gave a TGI (HCC-2998 colon) of over 100 µM, a TGI (OVCAR-3 ovarian) of over 100 µM and a TGI (SK-MEL-28 melanoma) of over 100 µM. For the same compound, the TGI (A549 NSCLC) was over 100 µM, the TGI (SNB-19 CNS) was over 100 µM and the TGI (CCRF-CEM leukemia) was over 76.4 µM. The TGI (K-562 leukemia) was over 100 µM, the TGI (MDA-N) was over 100 µM and the TGI (PC-3 prostate) was over 100 µM. The TGI (MOLT-4 leukemia) was over 62.3 µM, the TGI (NCI-H460 lung) was over 100 µM and the TGI (NCI-H226 lung) was over 100 µM. It also gave a TGI (ACHN renal) of over 50.9 µM, a TGI (HCT-116 colon) of over 100 µM and a TGI (CAKI-1 renal) of over 100 µM. The TGI (A498 renal) was over 100 µM, the TGI (BT-549 breast) was over 100 µM and the TGI (RPMI-8226 leukemia) was over 52.7 µM. For the same compound, the TGI (MCF7 breast) was over 54.8 µM, the TGI (MDA-MB-231 breast) was over 100 µM and the TGI (U251 CNS) was over 100 µM. For the same compound, the TGI (SN12C renal) was over 100 µM and the TGI (UACC-257 melanoma) was over 100 µM.
